Test results reported in ChEMBL document CHEMBL1201862, “PubChem BioAssay data set” (2004).
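The compound was tested at five concentrations on cells cultured in 96-well plates, with a 48-hour exposure period. GI50 = concentration required for 50% inhibition of growth.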 Activity calls are given as the source filed them. No stated cut-off is given here; in the data, active = GI50 up to about 1.1 µM and inactive = higher.

Legend:
Test in all cases: DTP human tumour cell line panel, 48 h
MDA-N = tested on: MDA-N
M14 = tested on: M14
MDA-MB-231 = tested on: MDA-MB-231
UO-31 = tested on: UO-31
SR = tested on: SR
T47D = tested on: T47D
SF-268 = tested on: SF-268
RXF 393 = tested on: RXF 393
NCI-H522 = tested on: NCI-H522
SNB-75 = tested on: SNB-75
OVCAR-8 = tested on: OVCAR-8
EKVX = tested on: EKVX
HOP-92 = tested on: HOP-92
HL-60 = tested on: HL-60
NCI-H226 = tested on: NCI-H226
MOLT-4 = tested on: MOLT-4
MDA-MB-435 = tested on: MDA-MB-435
HT-29 = tested on: HT-29
UACC-257 = tested on: UACC-257
SK-MEL-2 = tested on: SK-MEL-2
UACC-62 = tested on: UACC-62
HCT-116 = tested on: HCT-116
OVCAR-5 = tested on: OVCAR-5
SNB-19 = tested on: SNB-19
SF-539 = tested on: SF-539
NCI-H460 = tested on: NCI-H460
A498 = tested on: A498
LOX IMVI = tested on: LOX IMVI
CAKI-1 = tested on: CAKI-1
SW-620 = tested on: SW-620
SN12C = tested on: SN12C
HCC 2998 = tested on: HCC 2998
DU-145 = tested on: DU-145
PC-3 = tested on: PC-3
ACHN = tested on: ACHN
SF-295 = tested on: SF-295
RPMI-8226 = tested on: RPMI-8226
HOP-62 = tested on: HOP-62
OVCAR-4 = tested on: OVCAR-4
Malme-3M = tested on: Malme-3M
Hs-578T = tested on: Hs-578T
K562 = tested on: K562
U-251 = tested on: U-251
NCI-H23 = tested on: NCI-H23
SK-MEL-5 = tested on: SK-MEL-5
CCRF-CEM = tested on: CCRF-CEM
A549 = tested on: A549
SK-MEL-28 = tested on: SK-MEL-28
COLO 205 = tested on: COLO 205
BT-549 = tested on: BT-549
786-0 = tested on: 786-0
KM12 = tested on: KM12
TK-10 = tested on: TK-10
MCF7 = tested on: MCF7
NCI/ADR-RES = tested on: NCI/ADR-RES
OVCAR-3 = tested on: OVCAR-3
IGROV-1 = tested on: IGROV-1

Measured: GI50

NS(=O)(=O)c1c(O)c2ccccc2oc1=O
inactive: MDA-N > 100 µM | M14 > 100 µM | MDA-MB-231 > 100 µM | UO-31 > 100 µM | SR > 100 µM | T47D > 100 µM | SF-268 > 100 µM | RXF 393 > 100 µM | NCI-H522 > 100 µM | SNB-75 > 100 µM | OVCAR-8 > 100 µM | EKVX > 100 µM | HOP-92 > 100 µM | HL-60 > 100 µM | NCI-H226 > 100 µM | MOLT-4 > 100 µM | MDA-MB-435 > 100 µM | HT-29 > 100 µM | UACC-257 > 100 µM | SK-MEL-2 > 100 µM | UACC-62 > 100 µM | HCT-116 > 100 µM | OVCAR-5 > 100 µM | SNB-19 > 100 µM | SF-539 > 100 µM | NCI-H460 > 100 µM | A498 > 100 µM | LOX IMVI > 100 µM | CAKI-1 > 100 µM | SW-620 > 100 µM | SN12C > 100 µM | HCC 2998 > 100 µM | DU-145 > 100 µM | PC-3 > 100 µM | ACHN > 100 µM | SF-295 > 100 µM | RPMI-8226 > 100 µM | HOP-62 > 100 µM | OVCAR-4 > 100 µM | Malme-3M > 100 µM | Hs-578T > 100 µM | K562 > 100 µM | U-251 > 100 µM | NCI-H23 > 100 µM | SK-MEL-5 > 100 µM | CCRF-CEM > 100 µM | A549 > 100 µM | SK-MEL-28 > 100 µM | COLO 205 > 100 µM | BT-549 > 100 µM | 786-0 > 100 µM | KM12 > 100 µM | TK-10 > 100 µM | MCF7 > 100 µM | NCI/ADR-RES > 100 µM | OVCAR-3 > 100 µM | IGROV-1 > 100 µM
